Source: patent publication US10912741B2, “Prevention of liver cancer with safranal-based formulations” (United Arab Emirates University, priority 2019, dated 2021)

Legend:
Format in all cases: in vivo, albino Wistar rats
[1] = system: NF-kB-p65 nuclear localization; test: NF-kB-p65 nuclear localization in nuclear extracts; conditions: animal groups pre-treated with safranal (DEN-exposed)
From the text: DEN, 2-AAF, 5, 5′-dithiobis-(2-nitrobenzoic acid thiobarbituric acid, Folin's reagent, pyrogallol, SOD enzyme, H2O2, and bovine albumin were obtained from Sigma Chemical Co. (St. Louis, Mo.). Nf-kB nuclear localization assay kit was purchased from (Ser. No. 10/007,889, Cayman Chemical Company, Ann Arbor, Mich., USA).
(§1) The experimental hepatocarcinogenesis model was developed according to a protocol by Espandiaria et al. that was adapted for our purposes. To initiate and promote hepatocarcinogenesis, diethylnitrosamine (DEN) and 2-acetylaminofluorene (2-AAF) were used, respectively. For hepatocarcinogenesis initiation in this model, a single DEN dose (200 mg/kg b.wt.) dissolved in saline was injected intraperitoneally. After initiation, all rats underwent one period of 5-days fasting, as mitotic proliferative stimuli. To promote hepatocarcinogenesis, 2-acetylaminofluorene (2-AAF) was introduced in the form of six daily intragastric doses (30 mg/kg in 1% Tween 80); two weeks after DEN treatment.
(§2) Safranal at doses of 25 mg/kg by weight (b.wt.) and 50 mg/kg b.wt, was administrated orally to rats. These doses have been reported to suppress chemically-induced oxidative damage in rats. A total of 40 adult male albino Wistar rats were randomly divided into […] (n=8) and were subjected to different treatments. […]

[2] = system: protein carbonyl (P. carbonyl); test: Protein carbonyl content in liver homogenate, DEN/2-AAF hepatocarcinogenesis model; conditions: mean±SEM, 8 rats
Experimental: The experimental hepatocarcinogenesis model was developed according to a protocol by […] et al. that was adapted for our purposes. To initiate and promote hepatocarcinogenesis, diethylnitrosamine (DEN) and 2-acetylaminofluorene (2-AAF) were used, respectively. For hepatocarcinogenesis initiation in this model, a single DEN dose (200 mg/kg b.wt.) dissolved in saline was injected intraperitoneally. After initiation, all rats underwent one period of 5-days fasting, as mitotic proliferative stimuli. To promote hepatocarcinogenesis, 2-acetylaminofluorene (2-AAF) was introduced in the form of six daily intragastric doses (30 mg/kg in 1% Tween 80); two weeks after DEN treatment. […] at doses of 25 mg/kg by weight (b.wt.) and 50 mg/kg b.wt, was administrated orally to rats. These doses have been reported to suppress chemically-induced oxidative damage in rats. A total of 40 adult male albino Wistar rats were randomly divided into […] (n=8) and were subjected to different treatments. Group 1 (control) was orally administered distilled water (5 ml/kg b.wt.) throughout the experimental duration and were injected with a single dose of saline. Group 2 ([…] only) was subjected to a safranal dose (50 mg/kg b.wt.) through oral administration for the duration of the experimental period. Hepatocarcinogenesis was induced by DEN and promoted by 2-AAF, as reported previously, in group 3 (HCC). […] Glutathione (GSH) content was determined by analyzing liver homogenates, according to the method of Van Dooran et al. The assay depends on measuring yellow 5-thiol-2-nitrobenzoate absorbance at 412 nm. Glutathione-S-transferase (GST) activity was determined using the method of Habig et al. GST catalyzes the conjugation of GSH thiol group with 1-Chloro-2,4-dinitrobenzene (CDNB), which can be measured by determining the increase in absorbance at 340 nm. […] CAT decomposes hydrogen peroxide (H2O2) to oxygen and water; therefore, the activity of CAT was evaluated according to by the exponential decomposition of H2O2 at 240 nm. […] UV-160-Shimadzu recording spectrophotometer was used to record absorbances. […]

Ki-67 = test: Immunohistochemical staining of liver sections, Ki-67 (cell proliferation)
Experimental: as §1, §2
For immunohistochemical staining, mounted sections were immersed in sodium citrate buffer (0.1 M, pH 6) and placed in a water bath for 15 minutes to unmask antigen epitopes. […] Ten fields were randomly selected to quantify positive cells, in individual samples (400×). […]

Question: With CC1=C(C=O)C(C)(C)CC=C1 [Safranal, 2,6,6-trimethylcyclohexa-1,3-diene-1-carbaldehyde] as the compound, how does the “NF-kB-p65 level in nuclear extracts” value [1] read?
Answer: parallel decrease in NF-kB-p65 level in nuclear extracts

Question: And the P.Carbonyl ([2]; HCC (DEN/2-AAF) rats + safranal high dose 50 mg/kg b.wt. oral, 12 weeks)?
Answer: 1.45 ± 0.06 nmol/mg protein

Question: And the P.Carbonyl ([2]; HCC (DEN/2-AAF) rats + safranal low dose 25 mg/kg b.wt. oral, 12 weeks)?
Answer: 1.61 ± 0.06 nmol/mg protein

Question: And the P.Carbonyl ([2]; safranal alone 50 mg/kg b.wt. oral, no DEN (group 2))?
Answer: 1.52 ± 0.03 nmol/mg protein

Question: What about the “number of Ki-67 positive cells” value (Ki-67; low/high doses of safranal in animals exposed to DEN (groups 4-5)) of the same compound?
Answer: dramatically reduced the number of Ki-67 positive cells

Question: What about the “number of Ki-67-expressing hepatocytes” value (Ki-67; safranal alone (group 2)) of the same compound?
Answer: did not induce a significant change
